Experimental data as given in US7915402B2, “Antioxidant inflammation modulators: oleanolic acid derivatives with saturation in the C-ring” (Reata Pharmaceuticals, Inc., priority 2008, dated 2011).

Assays:
HO-1 = assay: Nrf2 target gene induction, HO-1 mRNA (qPCR); assay type: cell-based, human; conditions: MDA-MB-435 cells, 250 nM; fold induction above DMSO control
Experimental: (§1) FIGS. 17-20. Induction of HO-1. MDA-MB-435 human melanoma cells were treated with vehicle (DMSO) or the indicated compounds and concentrations for 16 hours. HO-1 mRNA levels were quantified using qPCR and were normalized relative to a DMSO-treated sample run in parallel. Values are averages of duplicate wells.
as §1, with “FIG. 21.” for “FIGS. 17-20.”, “HO-1, TrxR1 and γ-GCS.” for “HO-1.”, “HO-1, thioredoxin reductase-1 (TrxR1), and γ-glutamylcysteine synthetase (γ-GCS)” for “HO-1”
as §1, with “Nrf2 target gene induction.” for “FIGS. 17-20. Induction of HO-1.”, “HO-1, thioredoxin reductase-1 (TrxR1), γ-glutamylcysteine synthetase (γ-GCS), and ferritin heavy chain” for “HO-1”, “wells. Primer sequences are as follows.” for “wells.”

[1] = system: thioredoxin reductase-1 (TrxR1); assay: Nrf2 target gene induction, TrxR1 mRNA (qPCR); assay type: cell-based, human; conditions: MDA-MB-435 cells, 16 hours
Experimental: as §1, with “FIG. 21.” for “FIGS. 17-20.”, “HO-1, TrxR1 and γ-GCS.” for “HO-1.”, “HO-1, thioredoxin reductase-1 (TrxR1), and γ-glutamylcysteine synthetase (γ-GCS)” for “HO-1”
as §1, with “FIG. 22.” for “FIGS. 17-20.”, “TrxR1.” for “HO-1.”, “Thioredoxin reductase-1 (TrxR1)” for “HO-1”, “wells. Compounds 401, 402-19 and 402-53 are comparison compounds (see Example 1).” for “wells.”
as §1, with “Nrf2 target gene induction.” for “FIGS. 17-20. Induction of HO-1.”, “HO-1, thioredoxin reductase-1 (TrxR1), γ-glutamylcysteine synthetase (γ-GCS), and ferritin heavy chain” for “HO-1”, “wells. Primer sequences are as follows.” for “wells.”

[2] = system: IFNγ-induced NO production in RAW264.7 macrophages; assay: Suppression of IFNγ-induced NO production (Griess reagent); assay type: cell-based, mouse; conditions: Mus musculus; RAW264.7, 20 ng/ml IFNγ 24 h, 2 h pre-treatment
How it was run: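 Cells pre-treated with DMSO or compound at various nM concentrations for 2 h, then stimulated with 20 ng/ml recombinant mouse IFNγ for 24 h. Nitrite in medium measured by Griess reagent; viability read by WST-1.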

CC1(C)CC[C@]2(C(=O)NCC(F)(F)F)CC[C@]3(C)[C@H](C(=O)C[C@@H]4[C@@]5(C)C=C(C#N)C(=O)C(C)(C)[C@@H]5CC[C@]43C)[C@@H]2C1 [Compound 63102, (4aS,6aR,6bR,8aR,12aR,12bR,14aR,14bS)-11-cyano-2,2,6a,6b,9,9,12a-heptamethyl-10,14-dioxo-N-(2,2,2-trifluoroethyl)-1,2,3,4,4a,5,6,6a,6b,7,8,8a,9,10,12a,12b,13,14,14a,14b-icosahydropicene-4a-carboxamide]
HO-1 induction (HO-1): 3 fold | TrxR1 mRNA induction: concentration needed compared with unsaturated counterpart (402, 404) [1]: higher concentrations | IC50 [2]: ~0.045 µM
